From US8080582B2, “Derivatives of 8-epiblechnic acid and their effects on down-regulation of endothelin (ETA) receptor mRNA” (ScinoPharm Taiwan Ltd., priority 2008, dated 2011)

Experiments:
Format in all cases: cell-based
ETAR mRNA expression = test: Real-time quantitative RT-PCR of ETAR mRNA in smooth muscle cells (A10); details: vascular smooth muscle cells, 100 μg/ml, 48 hrs
Protocol: (§1) Extraction of cellular RNA: Subculturing smooth muscle cells to 100-mm culture dishes. After the cells had filled the culture dishes, Sal-B and its analogs were added to treat the cells for 48 hrs. After that, 1×PBS solutions were added to wash the cells three times. After adding 1 ml TRIzol, the cells were scraped off and placed in 1.5 ml micro-centrifuge tubes. Following the addition of 0.2 ml chloroform to each tube, the tubes were shaken, left at room temperature for 3 min., and run in a centrifuge at 12,000 rpm for 15 min. The supernatant liquid was removed and the cells placed in new micro-centrifuge tubes. After adding an amount of isopropyl alcohol equivalent to one-half of the volume of the supernatant liquid, and mixing until homogeneous, the samples were allowed to stand at room temperature for 10 min. The supernatant liquid was removed after centrifugation at 12,000 rpm for 10 min. 1 ml 70% alcohol was added to wash out salts, followed by centrifugation for 5 min. and removal of supernatant liquid. The samples were dissolved in 50 μl DEPC-H2O after drying.
(1) cDNA synthesis: 1 μl Random hexamer primer (20 μM) and 1 μl dNTP(10 mm) were added to 3 μg RNA, which was allowed to react at 65° C. for 5 min., and then placed on ice promptly. After the addition of 2 μl 10× reaction buffer, 0.5 μl RNaseOUT (40 unit/μl) and 1 μl SuperScript III RT (200 unit/μl), the solution was mixed until homogeneous, and allowed to react at 50° C. for 50 min. After that, the mixture was heated to 85° C. for 5 min. to terminate the enzymatic reaction. The samples were preserved at −70° C. for later use.
(2) PCR quantitative analysis: After adding 7.5 μl PCR primer mix (400 nm each) and 15 μl SYBR Green dye reagent to the 7.5 μl cDNA template, the solution was placed in Bio-Rad's iCycler for PCR reaction. The resulting data was inputted into Gene Expression Analysis for iCycler iQ Real-Time PCR Detection System for quantitative analysis of gene expression.
Furthermore, after treating vascular smooth muscle cells with 100 μg/ml of either Sal-B or EBA for 48 hrs, the identical concentrations of cellular whole RNA were sampled for the synthesis of cDNA by using reverse transcriptase. The PCR method was employed to determine the amounts of endothelin receptor mRNA expression. […] For the analysis of ETAR mRNA expression by using the real-time PCR method, vascular smooth muscle cells at full confluence 100-mm culture dishes were treated with 100 μg/ml of either Sal-B or EBA for 48 hrs. The identical concentrations of cellular whole RNA were sampled for the synthesis of cDNA by using reverse transcriptase. The real-time PCR method was used to compare the amounts of ETAR mRNA expression.
The different analogs, compounds A to F, had different effects on ETAR mRNA expression. The control group represented treating smooth muscle cells (A10) with DMSO, and the positive control group represented treating the cells with Sal-B. The smooth muscle cells were treated with 0.2 mM Sal-B and compounds A to F for 48 hrs. The identical concentrations of cellular RNA were sampled for the synthesis of cDNA by using reverse transcriptase. The real-time PCR method was employed to determine the amounts of ETAR mRNA expression. Compared with the control group, compound B had the least effect on down-regulating ETAR mRNA expression, as approximately 50% of the ETAR mRNA remained after the treatment. […]

[1] = system: endothelin receptor mRNA expression; test: PCR of endothelin receptor mRNA expression in vascular smooth muscle cells; details: 100 μg/ml, 48 hrs, PCR 25 or 30 reaction cycles
Protocol: as §1
(1) cDNA synthesis: 1 μl Random hexamer primer (20 μM) and 1 μl dNTP(10 mm) were added to 3 μg RNA, which was allowed to react at 65° C. for 5 min., and then placed on ice promptly. […]

ETAR protein expression = test: Western blot of ETAR protein expression in vascular smooth muscle cells; details: 100 μg/ml, 48 hrs
Protocol: The smooth muscle cells (5×10^5 cells in 35 mm culture dish) were treated with Sal-B and its analogs for 48 hrs, and then a proteinase inhibitor solution was used to collect proteins from the cells.
The protein concentrations in the samples were calculated by using BSA as the standards to construct a standard curve. After mixing Bradford Protein assay reagent evenly with the standards or the samples, the OD595 absorption values were measured. Standard curve was constructed by plotting OD595 values of the BSA standards versus their concentrations. The protein concentrations of the samples were calculated from the standard curve.
Bio-Rad's Mini-Protean III Dual Slab Cell instrument was used. A 12% polyacrylamide separating gel solution was prepared and placed into a electrophoretic gel preparation device. Deionized water was added to flat the surface of the separating gel solution, and the water was poured off after the gel had coagulated. A stacking gel solution containing 5% polyacrylamide was added and then a comb was inserted. The comb was removed after the stacking gel had coagulated, and the gel was placed into an upright electrophoresis tank. A suitable amount of running buffer was added, and then the protein samples were loaded into the wells of stacking gel layer. […]

For O=C(/C=C/c1ccc(O)c2c1[C@H](C(=O)O[C@H](Cc1ccc(O)c(O)c1)C(=O)[O-])[C@@H](c1ccc(O)c(O)c1)O2)O[C@H](Cc1ccc(O)c(O)c1)C(=O)[O-].[Mg+2] [Sal-B, magnesium lithospermate B], the “ETAR mRNA expression, % of that in the control” value (ETAR mRNA expression) was “approximately 27%”, the “Endothelin receptor mRNA expression compared with control” value [1] was “reduced as comparing with the control” and the “ETAR protein expression compared with control” value (ETAR protein expression) was “significantly reduced”.

With epiblechnic acid [EBA] the “ETAR mRNA expression, % of that in the control” value (ETAR mRNA expression) was “roughly 51%”, the “Endothelin receptor mRNA expression compared with control” value [1] was “reduced as comparing with the control” and the “ETAR protein expression compared with control” value (ETAR protein expression) was “significantly reduced”.
